Reference: patent US6100256A, “Use of NK-1 receptors antagonists for treating schizophrenic disorders” (priority 1996, dated 2000)
Like-named read-outs stand apart in the source and are kept apart here.

Biological target: T1, NK-1 receptor (Meriones unguiculatus, UniProt Q5DUB1)
T1 construct: from tissue; host or cells: central nervous system of living Mongolian gerbils (in vivo, agonist infused i.c.v.)
Experiment: Gerbil foot-tapping induced by central NK-1 receptor agonist (GR73632)
Type: in vivo, Mongolian gerbils
Settings: iv
Description: Assay 2: Gerbil Foot-Tapping
CNS-penetrant NK-1 receptor antagonists for use in the present invention can be identified by their ability to inhibit foot tapping in gerbils induced by anxiogenic agents (such as pentagastrin) or central infusion of NK-1 receptor agonists such as GR73632, or caused by aversive stimulation such as foot shock or single housing, based on the method of Rupniak & Williams, Eur. J. Pharmacol., 1994, 265, 179.
Male or female Mongolian gerbils (35-70 g) are anaesthetised by inhalation of an isoflurane/oxygen mixture to permit exposure of the jugular vein in order to permit administration of test compounds or vehicle in an injection volume of 5 ml/kg i.v. Alternatively, test compounds may be administered orally or by subcutaneous or intraperitoneal routes. A skin incision is then made in the midline of the scalp to expose the skull. […]

T1 sequence (Q5DUB1 whole entry, the tested form may be a part): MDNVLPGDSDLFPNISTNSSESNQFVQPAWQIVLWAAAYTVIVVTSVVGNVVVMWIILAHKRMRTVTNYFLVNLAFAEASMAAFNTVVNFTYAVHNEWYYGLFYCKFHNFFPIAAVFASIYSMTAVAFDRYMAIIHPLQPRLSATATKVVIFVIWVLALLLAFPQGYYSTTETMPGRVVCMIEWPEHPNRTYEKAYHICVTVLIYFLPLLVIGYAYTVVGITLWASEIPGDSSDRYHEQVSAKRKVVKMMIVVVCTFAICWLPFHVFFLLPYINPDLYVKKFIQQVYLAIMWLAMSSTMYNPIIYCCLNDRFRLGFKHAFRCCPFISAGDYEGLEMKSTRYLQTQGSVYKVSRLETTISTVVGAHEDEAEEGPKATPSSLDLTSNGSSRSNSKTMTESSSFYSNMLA

## OC[C@@H](O[C@H]1OCCN(Cc2nc[nH]n2)[C@H]1c1ccc(F)cc1)c1cc(C(F)(F)F)cc(C(F)(F)F)c1 [2-(R)-(1-(S)-(3,5-bis(trifluoromethyl)phenyl)-2-hydroxyethoxy)-3-(S)-(4-fluorophenyl)-4-(1,2,4-triazol-3-yl)methylmorpholine]
5 min, i.v., 5 mins., administered immediately prior to central NK1 agonist challenge, read-out: gerbil foot-tapping (5 mins.): ID50
  ED50: 0.38 mg/kg
24 hrs. prior to central NK1 agonist challenge, read-out: gerbil foot-tapping (24 hrs.): ID50
  ED50: 2.2 mg/kg
